Source: patent US9630961B2, “Arginine methyltransferase inhibitors and uses thereof” (Epizyme, Inc., priority 2013, dated 2017)

Target: T1, PRMT6 (Homo sapiens, UniProt Q96LA8)
T1 construct: Flag-PRMT6-His; made in house; host or cells: HEK 293F cells (BacMam virus)
Test: PRMT6 Biochemical Assay (3H-SAM Flashplate, peptide substrate)
Details: 30 min preincubation, room temperature
From the text: S-adenosylmethionine (SAM), S-adenosylhomocysteine (SAH), bicine, Tween20, dimethylsulfoxide (DMSO), bovine skin gelatin (BSG), sodium butyrate and Tris(2-carboxyethyl)phosphine hydrochloride solution (TCEP) were purchased from Sigma-Aldrich at the highest level of purity possible. ^3H-SAM was purchase from American Radiolabeled Chemicals with a specific activity of 80 Ci/mmol. 384-well streptavidin Flashplates were purchased from PerkinElmer.
Peptide representative of human histone H4 residues 36-50 was synthesized with an N-terminal linker-affinity tag motif and a C-terminal amide cap by 21st Century Biochemicals. The peptide was purified by high-performance liquid chromatography (HPLC) to greater than 95% purity and confirmed by liquid chromatography mass spectrometry (LC-MS). The sequence was Biot-Ahx-[…]-amide and contained a monomethylated lysine at position 44 (SEQ ID NO.:5).
Full-length human PRMT6 (NM_018137.2) transcript clone was amplified from an HEK 293 cDNA library, incorporating a flanking 5′ sequence encoding a FLAG tag ([…]) (SEQ ID NO.:6) fused directly to Ser 2 of PRMT6 and a 3′ sequence encoding a hexa His sequence (HHHHHH) fused directly to Asp 375. The amplified gene was subcloned into pFastBacMam (Viva Biotech).
Recombinant baculovirus were generated according to Bac-to-Bac kit instructions (Life Technologies). […] Infections were carried out at 37° C. for 48 hours, harvested by centrifugation, and stored at −80° C. for purification.
Column was washed with 20 mM imidazole in the same buffer and Flag-PRMT6-His was eluted with 150 mM imidazole. Pooled fractions were dialysed against buffer Ni-A and further purified by anti-flag M2 affinity chromatography. Flag-PRMT6-His was eluted with 200 ug/ml FLAG peptide in the same buffer. Pooled fractions were dialysed in 20 mM Tris, 150 mM NaCl, 10% glycerol and 5 mM β-mercaptoethanol, pH 7.8. The purity of recovered protein was 95%.
General Procedure for PRMT6 Enzyme Assays on Peptide Substrates.
The assays were all performed in a buffer consisting of 20 mM Bicine (pH=7.6), 1 mM TCEP, 0.005% BSG, and 0.002% Tween 20, prepared on the day of use. Compounds in 100% DMSO (1 ul) were spotted into a polypropylene 384-well V-bottom plates (Greiner) using a Platemate Plus outfitted with a 384-channel head (Thermo Scientific). DMSO (1 ul) was added to Columns 11, 12, 23, 24, rows A-H for the maximum signal control and 1 ul of SAH, a known product and inhibitor of PRMT6, was added to columns 11, 12, 23, 24, rows I-P for the minimum signal control. A cocktail (40 ul) containing the PRMT6 enzyme was added by Multidrop Combi (Thermo-Fisher). The compounds were allowed to incubate with PRMT6 for 30 min at room temperature, then a cocktail (10 ul) containing SAM and peptide was added to initiate the reaction (final volume=51 ul). The final concentrations of the components were as follows: PRMT6 was 1 nM, ^3H-SAM was 200 nM, non-radiolabeled SAM was 250 nM, peptide was 75 nM, SAH in the minimum signal control wells was 1 mM, and the DMSO concentration was 2%. The assays were stopped by the addition of non-radiolabeled SAM (10 ul) to a final concentration of 400 uM, which dilutes the ^3H-SAM to a level where its incorporation into the peptide substrate is no longer detectable. 50 ul of the reaction in the 384-well polypropylene plate was then transferred to a 384-well Flashplate and the biotinylated peptides were allowed to bind to the streptavidin surface for at least 1 hour before being washed once with 0.1% Tween20 in a Biotek ELx405 plate washer. The plates were then read in a PerkinElmer TopCount plate reader to measure the quantity of ^3H-labeled peptide bound to the Flashplate surface, measured as disintegrations per minute (dpm) or alternatively, referred to as counts per minute (cpm).
Where dpm=disintegrations per minute, cmpd=signal in assay well, and min and max are the respective minimum and maximum signal controls. […]

T1 sequence (Q96LA8 with tags, fused parts or gaps): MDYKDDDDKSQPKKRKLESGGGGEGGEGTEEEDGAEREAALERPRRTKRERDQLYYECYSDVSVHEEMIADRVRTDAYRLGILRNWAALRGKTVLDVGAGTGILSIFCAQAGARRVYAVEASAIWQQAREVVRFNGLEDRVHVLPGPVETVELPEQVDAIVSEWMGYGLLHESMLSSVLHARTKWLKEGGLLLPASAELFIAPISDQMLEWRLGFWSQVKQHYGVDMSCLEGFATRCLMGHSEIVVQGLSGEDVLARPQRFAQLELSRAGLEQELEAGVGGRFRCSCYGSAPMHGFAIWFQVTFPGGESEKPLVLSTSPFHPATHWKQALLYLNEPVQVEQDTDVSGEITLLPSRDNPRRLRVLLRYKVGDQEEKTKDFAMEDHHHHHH

Structure (SMILES) | IC50 [nM]
CN(CCN)Cc1c[nH]nc1-c1ccsc1 [Compound 3] | ≤ 100
CN(CCN)Cc1c[nH]nc1-c1cncnc1 [Compound 4] | 101 to 1000
CN(CCN)Cc1c[nH]nc1-c1cccs1 [Compound 5] | 101 to 1000
CN(CCN)Cc1c[nH]nc1-c1ccco1 [Compound 6] | 101 to 1000
CN(CCN)Cc1c[nH]nc1-c1ccc2scnc2c1 [Compound 9] | ≤ 100
Cc1noc(C)c1-c1n[nH]cc1CN(C)CCN [Compound 10] | ≥ 10000
COc1ncc(-c2n[nH]cc2CN(C)CCN)cn1 [Compound 11] | 101 to 1000
CN(CCN)Cc1c[nH]nc1-c1cnc2[nH]ccc2c1 [Compound 13] | ≤ 100
CN(CCN)Cc1c[nH]nc1-c1cc[nH]n1 [Compound 14] | 1010 to 3000
CN(CCN)Cc1c[nH]nc1-c1cnn(-c2ccccc2)c1 [Compound 17] | ≤ 100
CN(CCN)Cc1c[nH]nc1-c1ccc2ncnn2c1 [Compound 20] | ≤ 100
CN(CCN)Cc1c[nH]nc1-c1ccc2nccn2c1 [Compound 21, N^1-((3-(imidazo[1,2-a]pyridin-6-yl)-1H-pyrazol-4-yl)methyl)-N^1-methylethane-1,2-diamine] | ≤ 100
Cc1n[nH]c(C)c1-c1n[nH]cc1CN(C)CCN [Compound 25] | ≥ 10000
CN(CCN)Cc1c[nH]nc1-c1ccc2[nH]ncc2c1 [Compound 27, N^1-((3-(1H-indazol-5-yl)-1H-pyrazol-4-yl)methyl)-N^1-methylethane-1,2-diamine] | ≤ 100
CN(CCN)Cc1c[nH]nc1-c1cnc(C2CC2)nc1 [Compound 28] | 101 to 1000
CN(CCN)Cc1c[nH]nc1-c1ccc[nH]1 [Compound 29] | 1010 to 3000
CN(CCN)Cc1c[nH]nc1-c1cccc2[nH]ncc12 [Compound 30] | ≤ 100

Continued, values first:

IC50 [nM] | Structure (SMILES)
101 to 1000 | CN(CCN)Cc1c[nH]nc1-c1ccoc1 [Compound 7]
≤ 100 | CN(CCN)Cc1c[nH]nc1-c1cnn(C)c1 [Compound 8]
101 to 1000 | CN(CCN)Cc1c[nH]nc1-c1cn[nH]c1 [Compound 12]
1010 to 3000 | CN(CCN)Cc1c[nH]nc1-c1ccnn1C [Compound 15]
≤ 100 | CCn1cc(-c2n[nH]cc2CN(C)CCN)cn1 [Compound 16]
≤ 100 | CN(CCN)Cc1c[nH]nc1-c1cnn(CCO)c1 [Compound 18]
≤ 100 | CN(CCN)Cc1c[nH]nc1-c1ccc2cnn(C)c2c1 [Compound 19, N^1-methyl-N^1-((3-(1-methyl-1H-indazol-6-yl)-1H-pyrazol-4-yl)methyl)ethane-1,2-diamine]
≤ 100 | CC(C)n1cc(-c2n[nH]cc2CN(C)CCN)cn1 [Compound 22]
≤ 100 | CC(C)Cn1cc(-c2n[nH]cc2CN(C)CCN)cn1 [Compound 23, N^1-((2′-isobutyl-3,4′-bi(1H-pyrazol)-4-yl)methyl)-N^1-methylethane-1,2-diamine]
≤ 100 | CN(CCN)Cc1c[nH]nc1-c1cnn(Cc2ccccc2)c1 [Compound 24, N^1-((1′-benzyl-3,4′-bi(1H-pyrazol)-4-yl)methyl)-N^1-methylethane-1,2-diamine]
